According to PubChem BioAssay AID1963967 (Molecular Pharmacology Branch, DTP, NCI, 2024):

Tested on: 855422-203-R-J1-PDC spheroids with HUVEC/MSC, viability
Assay: Anticancer human tumor 855422-203-R-J1-PDC patient-derived bladder carcinoma cell line growth inhibition [PI3K]
Details: for IC50: curve of first compound; for viability, T/C: stronger effect = lower value
Summary of the method: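 Spheroid viability read-out. Co-cultures contained the tumor line plus HUVEC and human MSCs. Each agent was paired with a PI3K inhibitor (inavolisib, alpelisib, duvelisib, copanlisib) across half-log dilutions starting at clinical Cmax, or at 10 microM when Cmax was unknown.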

[1] = second compound 0.0316 µM, first compound 0.0316 µM
[2] = second compound 0.0316 µM, first compound 0.1 µM
[3] = second compound 0.0316 µM, first compound 0.316 µM
[4] = second compound 0.0316 µM, first compound 1 µM
[5] = second compound 0.0316 µM, first compound 3.16 µM
[6] = second compound 0.0316 µM, first compound 10 µM
[7] = second compound 0.1 µM, first compound 0.0316 µM
[8] = second compound 0.1 µM, first compound 0.1 µM
[9] = second compound 0.1 µM, first compound 0.316 µM
[10] = second compound 0.1 µM, first compound 1 µM
[11] = second compound 0.1 µM, first compound 3.16 µM
[12] = second compound 0.1 µM, first compound 10 µM
[13] = second compound 0.316 µM, first compound 0.0316 µM
[14] = second compound 0.316 µM, first compound 0.1 µM
[15] = second compound 0.316 µM, first compound 0.316 µM
[16] = second compound 0.316 µM, first compound 1 µM
[17] = second compound 0.316 µM, first compound 3.16 µM
[18] = second compound 0.316 µM, first compound 10 µM
[19] = second compound 1 µM, first compound 0.0316 µM
[20] = second compound 1 µM, first compound 0.1 µM
[21] = second compound 1 µM, first compound 0.316 µM
[22] = second compound 1 µM, first compound 1 µM
[23] = second compound 1 µM, first compound 3.16 µM
[24] = second compound 1 µM, first compound 10 µM
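Also: agents incubated with spheroids for one week before read-out.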
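For viability, T/C in this document: 100% = DMSO vehicle-treated control wells.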

## CC1(C)CCC(Nc2ncc(C(F)(F)F)c(-c3c[nH]c4c(P(C)(C)=O)c(C#N)ccc34)n2)CN1 (stereo unspecified) + CC(Nc1ccc2c(c1)OCCn1cc(N3C(=O)OCC3C(F)F)nc1-2)C(N)=O
Second compound 0.00316 µM
  IC50: < 0.0316 µM
Second compound 0.01 µM
  IC50: < 0.0316 µM
Second compound 0.0316 µM
  IC50: < 0.0316 µM
Second compound 0.1 µM
  IC50: < 0.0316 µM
Second compound 0.316 µM
  IC50: < 0.0316 µM
Second compound 1 µM
  IC50: < 0.0316 µM
Second compound 0.00316 µM, first compound 0.0316 µM
  viability, T/C: 23.7%
Second compound 0.00316 µM, first compound 0.1 µM
  viability, T/C: 25%
Second compound 0.00316 µM, first compound 0.316 µM
  viability, T/C: 27.9%
Second compound 0.00316 µM, first compound 1 µM
  viability, T/C: 31.6%
Second compound 0.00316 µM, first compound 3.16 µM
  viability, T/C: 31.4%
Second compound 0.00316 µM, first compound 10 µM
  viability, T/C: 3.85%
Second compound 0.01 µM, first compound 0.0316 µM
  viability, T/C: 20.4%
Second compound 0.01 µM, first compound 0.1 µM
  viability, T/C: 21.3%
Second compound 0.01 µM, first compound 0.316 µM
  viability, T/C: 26.2%
Second compound 0.01 µM, first compound 1 µM
  viability, T/C: 25.8%
Second compound 0.01 µM, first compound 3.16 µM
  viability, T/C: 29.1%
Second compound 0.01 µM, first compound 10 µM
  viability, T/C: 3.78%
[1]
  viability, T/C: 20.2%
[2]
  viability, T/C: 22.9%
[3]
  viability, T/C: 22.2%
[4]
  viability, T/C: 24.6%
[5]
  viability, T/C: 24.1%
[6]
  viability, T/C: 2.13%
[7]
  viability, T/C: 20.2%
[8]
  viability, T/C: 19.4%
[9]
  viability, T/C: 20%
[10]
  viability, T/C: 23.2%
[11]
  viability, T/C: 21.5%
[12]
  viability, T/C: 3.77%
[13]
  viability, T/C: 15.3%
[14]
  viability, T/C: 17.9%
[15]
  viability, T/C: 15.7%
[16]
  viability, T/C: 15.5%
[17]
  viability, T/C: 13.7%
[18]
  viability, T/C: 1.23%
[19]
  viability, T/C: 14.4%
[20]
  viability, T/C: 14.2%
[21]
  viability, T/C: 13.1%
[22]
  viability, T/C: 12.6%
[23]
  viability, T/C: 11.4%
[24]
  viability, T/C: 0.83%

## CNC(=O)c1ccc(N2C(=S)N(c3ccc(C#N)c(C(F)(F)F)c3)C(=O)C2(C)C)cc1F + CC(Nc1ncnc2nc[nH]c12)c1cc2cccc(Cl)c2c(=O)n1-c1ccccc1
Second compound 0.0316 µM
  IC50: > 10 µM
Second compound 0.1 µM
  IC50: > 10 µM
Second compound 0.316 µM
  IC50: > 10 µM
Second compound 1 µM
  IC50: > 10 µM
Second compound 3.16 µM
  IC50: > 10 µM
Second compound 10 µM
  IC50: > 10 µM
[1]
  viability, T/C: 111%
[2]
  viability, T/C: 93%
[3]
  viability, T/C: 109%
[4]
  viability, T/C: 89.1%
[5]
  viability, T/C: 86.2%
[6]
  viability, T/C: 75.4%
[7]
  viability, T/C: 117%
[8]
  viability, T/C: 91.1%
[9]
  viability, T/C: 104%
[10]
  viability, T/C: 86.6%
[11]
  viability, T/C: 74.3%
[12]
  viability, T/C: 68.5%
[13]
  viability, T/C: 96.9%
[14]
  viability, T/C: 105%
[15]
  viability, T/C: 102%
[16]
  viability, T/C: 80.2%
[17]
  viability, T/C: 76.5%
[18]
  viability, T/C: 63.1%
[19]
  viability, T/C: 97.4%
[20]
  viability, T/C: 102%
[21]
  viability, T/C: 106%
[22]
  viability, T/C: 91.4%
[23]
  viability, T/C: 73%
[24]
  viability, T/C: 69.1%
Second compound 3.16 µM, first compound 0.0316 µM
  viability, T/C: 100%
Second compound 3.16 µM, first compound 0.1 µM
  viability, T/C: 100%
Second compound 3.16 µM, first compound 0.316 µM
  viability, T/C: 100%
Second compound 3.16 µM, first compound 1 µM
  viability, T/C: 84.3%
Second compound 3.16 µM, first compound 3.16 µM
  viability, T/C: 76%
Second compound 3.16 µM, first compound 10 µM
  viability, T/C: 77.7%
Second compound 10 µM, first compound 0.0316 µM
  viability, T/C: 89%
Second compound 10 µM, first compound 0.1 µM
  viability, T/C: 80.9%
Second compound 10 µM, first compound 0.316 µM
  viability, T/C: 95.8%
Second compound 10 µM, first compound 1 µM
  viability, T/C: 81%
Second compound 10 µM, first compound 3.16 µM
  viability, T/C: 77.4%
Second compound 10 µM, first compound 10 µM
  viability, T/C: 68.4%

## Cn1cnc2c(F)c(Nc3ccc(Br)cc3Cl)c(C(=O)NOCCO)cc21 + CC(Nc1ncnc2nc[nH]c12)c1cc2cccc(Cl)c2c(=O)n1-c1ccccc1
Second compound 0.0316 µM
  IC50: > 3 µM
Second compound 0.1 µM
  IC50: > 3 µM
Second compound 0.316 µM
  IC50: 2.38 µM
Second compound 1 µM
  IC50: 2.17 µM
Second compound 3.16 µM
  IC50: 1.65 µM
Second compound 10 µM
  IC50: 0.529 µM
Second compound 0.0316 µM, first compound 0.00949 µM
  viability, T/C: 116%
Second compound 0.0316 µM, first compound 0.03 µM
  viability, T/C: 90.7%
Second compound 0.0316 µM, first compound 0.0949 µM
  viability, T/C: 114%
Second compound 0.0316 µM, first compound 0.3 µM
  viability, T/C: 87.9%
Second compound 0.0316 µM, first compound 0.949 µM
  viability, T/C: 78.6%
Second compound 0.0316 µM, first compound 3 µM
  viability, T/C: 50.4%
Second compound 0.1 µM, first compound 0.00949 µM
  viability, T/C: 109%
Second compound 0.1 µM, first compound 0.03 µM
  viability, T/C: 97%
Second compound 0.1 µM, first compound 0.0949 µM
  viability, T/C: 104%
Second compound 0.1 µM, first compound 0.3 µM
  viability, T/C: 93.8%
Second compound 0.1 µM, first compound 0.949 µM
  viability, T/C: 90.5%
Second compound 0.1 µM, first compound 3 µM
  viability, T/C: 50.1%
Second compound 0.316 µM, first compound 0.00949 µM
  viability, T/C: 91.2%
Second compound 0.316 µM, first compound 0.03 µM
  viability, T/C: 100%
Second compound 0.316 µM, first compound 0.0949 µM
  viability, T/C: 101%
Second compound 0.316 µM, first compound 0.3 µM
  viability, T/C: 103%
Second compound 0.316 µM, first compound 0.949 µM
  viability, T/C: 80.2%
Second compound 0.316 µM, first compound 3 µM
  viability, T/C: 42.4%
Second compound 1 µM, first compound 0.00949 µM
  viability, T/C: 86.9%
Second compound 1 µM, first compound 0.03 µM
  viability, T/C: 96.3%
Second compound 1 µM, first compound 0.0949 µM
  viability, T/C: 103%
Second compound 1 µM, first compound 0.3 µM
  viability, T/C: 88.1%
Second compound 1 µM, first compound 0.949 µM
  viability, T/C: 79%
Second compound 1 µM, first compound 3 µM
  viability, T/C: 38.7%
Second compound 3.16 µM, first compound 0.00949 µM
  viability, T/C: 97%
Second compound 3.16 µM, first compound 0.03 µM
  viability, T/C: 96.5%
Second compound 3.16 µM, first compound 0.0949 µM
  viability, T/C: 100%
Second compound 3.16 µM, first compound 0.3 µM
  viability, T/C: 87.3%
Second compound 3.16 µM, first compound 0.949 µM
  viability, T/C: 67.3%
Second compound 3.16 µM, first compound 3 µM
  viability, T/C: 31.8%
Second compound 10 µM, first compound 0.00949 µM
  viability, T/C: 85.9%
Second compound 10 µM, first compound 0.03 µM
  viability, T/C: 74.1%
Second compound 10 µM, first compound 0.0949 µM
  viability, T/C: 70.9%
Second compound 10 µM, first compound 0.3 µM
  viability, T/C: 58.6%
Second compound 10 µM, first compound 0.949 µM
  viability, T/C: 41.6%
Second compound 10 µM, first compound 3 µM
  viability, T/C: 21.4%
